Tests used:
Assay in all cases: competitive isoTOP-ABPP
Assay type in all cases: binding
[1] = molecular target: T1, MAP2K3 Dual specificity mitogen-activated protein kinase (Homo sapiens, UniProt P46734); details: for isoTOP-ABPP ratio (R) at liganded lysine P46734_K93: 50 uM, in vitro, sol, 231
T1 construct: isoTOP-ABPP experiments performed in cell lysates (in vitro); endogenous in cells; host or cells: soluble proteome of human cancer cell lines (MDA-MB-231; Ramos and Jurkat also prepared)
T1 sequence (P46734 1-347): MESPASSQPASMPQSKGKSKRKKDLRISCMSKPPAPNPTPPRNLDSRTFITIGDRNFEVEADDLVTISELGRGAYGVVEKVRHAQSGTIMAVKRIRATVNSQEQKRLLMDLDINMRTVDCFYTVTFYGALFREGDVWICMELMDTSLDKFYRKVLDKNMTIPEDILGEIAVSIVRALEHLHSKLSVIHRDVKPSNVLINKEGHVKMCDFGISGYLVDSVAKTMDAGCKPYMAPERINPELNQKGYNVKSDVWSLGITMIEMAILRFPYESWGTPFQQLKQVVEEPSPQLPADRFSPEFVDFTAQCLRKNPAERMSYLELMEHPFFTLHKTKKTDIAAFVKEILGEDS
Procedure, shortened: (§1)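 Cell lysate (0.5 ml) was pre-treated with fragment, 50 μM for activated esters or 100 μM for guanidinylating agents, versus DMSO, then labeled 1 h at ambient temperature with 0.1 mM STP-alkyne. Light/heavy TEV tags attached by CuAAC; R = DMSO/compound MS1 peak-area ratio, median per lysine.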

[2] = molecular target: T2, PFKL 6-phosphofructokinase, liver type (Homo sapiens, UniProt P17858); details: for isoTOP-ABPP ratio (R) at liganded lysine P17858_K677 / isoTOP-ABPP ratio (R) at liganded lysine P17858_K715 / isoTOP-ABPP ratio (R) at liganded lysine P17858_K315: 50 uM, in vitro, sol, 231; for isoTOP-ABPP ratio, lysine P17858_K677: possible other lysine P17858_K681; for isoTOP-ABPP ratio, lysine P17858_K715: possible other lysine P17858_K714
T2 construct: isoTOP-ABPP experiments performed in cell lysates (in vitro); endogenous in cells; host or cells: soluble proteome of human cancer cell lines (MDA-MB-231; Ramos and Jurkat also prepared)
T2 sequence (P17858 1-780): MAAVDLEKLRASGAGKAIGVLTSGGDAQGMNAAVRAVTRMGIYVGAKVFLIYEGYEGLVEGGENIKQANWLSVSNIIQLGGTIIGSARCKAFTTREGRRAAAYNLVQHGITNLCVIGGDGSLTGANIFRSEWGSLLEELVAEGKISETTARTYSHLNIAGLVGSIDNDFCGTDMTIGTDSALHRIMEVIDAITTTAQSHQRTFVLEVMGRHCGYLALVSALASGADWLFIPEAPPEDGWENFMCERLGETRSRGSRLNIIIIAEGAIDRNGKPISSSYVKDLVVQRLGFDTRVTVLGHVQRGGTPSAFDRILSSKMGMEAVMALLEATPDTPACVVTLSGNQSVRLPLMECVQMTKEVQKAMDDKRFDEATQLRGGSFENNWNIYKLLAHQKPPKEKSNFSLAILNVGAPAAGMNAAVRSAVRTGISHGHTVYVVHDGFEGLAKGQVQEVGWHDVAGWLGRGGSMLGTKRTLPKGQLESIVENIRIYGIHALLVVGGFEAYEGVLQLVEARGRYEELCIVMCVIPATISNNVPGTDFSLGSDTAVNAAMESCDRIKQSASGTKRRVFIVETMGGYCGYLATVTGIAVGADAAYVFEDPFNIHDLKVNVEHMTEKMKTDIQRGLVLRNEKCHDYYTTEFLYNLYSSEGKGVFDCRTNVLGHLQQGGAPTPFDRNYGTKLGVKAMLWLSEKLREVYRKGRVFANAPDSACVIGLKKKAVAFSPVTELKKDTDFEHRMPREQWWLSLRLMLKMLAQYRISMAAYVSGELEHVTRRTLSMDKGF
Procedure, shortened: as §1

EEF2 Elongation factor 2 = molecular target: T3, EEF2 Elongation factor 2 (Homo sapiens, UniProt P13639); details: for isoTOP-ABPP ratio (R) at liganded lysine P13639_K235 / isoTOP-ABPP ratio (R) at liganded lysine P13639_K318: 50 uM, in vitro, sol, 231
T3 construct: isoTOP-ABPP experiments performed in cell lysates (in vitro); endogenous in cells; host or cells: soluble proteome of human cancer cell lines (MDA-MB-231; Ramos and Jurkat also prepared)
Procedure, shortened: as §1

Row | SMILES | isoTOP-ABPP ratio (R) at liganded lysine P46734_K93 [1] | isoTOP-ABPP ratio (R) at liganded lysine P17858_K677 [2] | isoTOP-ABPP ratio (R) at liganded lysine P17858_K715 [2] | isoTOP-ABPP ratio (R) at liganded lysine P13639_K235 (EEF2 Elongation factor 2) | isoTOP-ABPP ratio (R) at liganded lysine P13639_K318 (EEF2 Elongation factor 2) | isoTOP-ABPP ratio, lysine P46734_K93 ([1]; 50 uM_231_sol_in vitro) | isoTOP-ABPP ratio, lysine P17858_K315 ([2]; 50 uM_231_sol_in vitro) | isoTOP-ABPP ratio, lysine P17858_K677 ([2]; 50 uM_231_sol_in vitro) | isoTOP-ABPP ratio, lysine P17858_K715 ([2]; 50 uM_231_sol_in vitro) | isoTOP-ABPP ratio, lysine P13639_K235 (EEF2 Elongation factor 2; 50 uM_231_sol_in vitro) | isoTOP-ABPP ratio, lysine P13639_K318 (EEF2 Elongation factor 2; 50 uM_231_sol_in vitro) | also measured
1 | O=C(Oc1ccc([N+](=O)[O-])cc1[N+](=O)[O-])c1ccc2ccccc2n1 [fragment 35, 2,4-Dinitrophenyl quinoline-2-carboxylate] | 1.0 | 1.5 | 1.3 | 1.1 | 1.1 | – | – | – | – | – | – | –
2 | O=C(CCc1coc2cc(F)ccc2c1=O)Oc1ccc([N+](=O)[O-])cc1[N+](=O)[O-] [fragment 36, 2,4-Dinitrophenyl 3-(7-fluoro-4-oxo-4H-chromen-3-yl)propanoate] | 0.9 | 20.0 | 20.0 | 1.0 | 1.0 | – | – | – | – | – | – | –
3 | O=C(Oc1ccc([N+](=O)[O-])cc1[N+](=O)[O-])c1ccc(-c2ccccc2)cc1 [fragment 37, 2,4-Dinitrophenyl [1,1′-biphenyl]-4-carboxylate] | 0.7 | 1.1 | 1.1 | 1.0 | 1.0 | – | – | – | – | – | – | isoTOP-ABPP ratio (R) at liganded lysine P17858_K315 [2]: 1.3
4 | O=C(CC12CC3CC(CC(C3)C1)C2)Oc1ccc([N+](=O)[O-])cc1[N+](=O)[O-] [fragment 38, 2,4-Dinitrophenyl 2-(adamantan-1-yl)acetate] | 0.9 | 1.3 | 20.0 | 0.9 | 0.9 | – | – | – | – | – | – | isoTOP-ABPP ratio (R) at liganded lysine P17858_K315 [2]: 0.4
5 | O=C(Oc1ccc([N+](=O)[O-])cc1[N+](=O)[O-])c1ccc(Oc2ccccc2)cc1 [fragment 39, 2,4-Dinitrophenyl 4-phenoxybenzoate] | 0.8 | 1.3 | 0.6 | 0.9 | 0.9 | – | – | – | – | – | – | –
6 | O=C(Oc1ccc([N+](=O)[O-])cc1[N+](=O)[O-])c1ccccc1Nc1cccc(C(F)(F)F)c1 [fragment 40, 2,4-Dinitrophenyl 2-((3-(trifluoromethyl)phenyl)amino)benzoate] | 1.0 | 0.9 | 1.1 | 0.9 | 0.9 | – | – | – | – | – | – | –
7 | CC(C)(C)OC(=O)NCCCC(=O)Oc1ccc([N+](=O)[O-])cc1[N+](=O)[O-] [fragment 41, 2,4-Dinitrophenyl 4-((tert-butoxycarbonyl)amino)butanoate] | 0.9 | 5.6 | 2.0 | 1.0 | 1.1 | – | – | – | – | – | – | isoTOP-ABPP ratio (R) at liganded lysine P17858_K315 [2]: 2.3
8 | O=C(Oc1ccc([N+](=O)[O-])cc1[N+](=O)[O-])C(c1ccccc1)(c1ccccc1)c1ccccc1 [fragment 42, 2,4-Dinitrophenyl 2,2,2-triphenylacetate] | 0.9 | 0.8 | 0.9 | 1.0 | 1.0 | – | – | – | – | – | – | isoTOP-ABPP ratio (R) at liganded lysine P17858_K315 [2]: 0.7
9 | CC(=O)Oc1ccc([N+](=O)[O-])cc1[N+](=O)[O-] [fragment 43, 2,4-Dinitrophenyl acetate] | 1.0 | 3.2 | 1.3 | 1.1 | 1.2 | – | – | – | – | – | – | –
10 | N#Cc1ccc(C(=O)Oc2ccc([N+](=O)[O-])cc2[N+](=O)[O-])cc1 [fragment 44, 2,4-Dinitrophenyl 4-cyanobenzoate] | – | – | – | – | – | 0.8 | 0.8 | 1.7 | 1.8 | 1.0 | 1.1 | –
11 | O=C(CCc1ccc2c(c1)OCO2)Oc1ccc([N+](=O)[O-])cc1[N+](=O)[O-] [fragment 45, 2,4-Dinitrophenyl 3-(benzo[d][1,3]dioxol-5-yl)propanoate] | – | – | – | – | – | 0.9 | 1.8 | 2.9 | 10.9 | 1.0 | 1.0 | –
12 | O=C(ON1C(=O)CCC1=O)c1cc(C(F)(F)F)cc(C(F)(F)F)c1 [fragment 46, 3,5-Bis(trifluoromethyl)benzoic acid NHS ester] | – | – | – | – | – | 1.3 | 0.6 | 1.4 | 0.8 | 1.3 | 1.1 | –
13 | O=C(Oc1c(F)c(F)c(C(F)(F)F)c(F)c1F)c1cc(C(F)(F)F)cc(C(F)(F)F)c1 [fragment 47, 2,3,5,6-Tetrafluoro-4-(trifluoromethyl)phenyl 3,5-bis(trifluoromethyl)benzoate] | – | – | – | – | – | 1.1 | 1.0 | 1.0 | 1.0 | 1.1 | 1.1 | –
14 | O=C(Oc1c(F)c(F)cc(F)c1F)c1cc(C(F)(F)F)cc(C(F)(F)F)c1 [fragment 48, 2,3,5,6-Tetrafluorophenyl 3,5-bis(trifluoromethyl)benzoate] | – | – | – | – | – | 1.1 | 0.7 | 0.9 | 1.0 | 1.2 | 1.1 | –
15 | COC(=O)NC(=NC(=O)OCC1c2ccccc2-c2ccccc21)n1cccn1 [fragment 49, N-Methoxycarbonyl-N′-9-fluorenylmethoxycarbonyl-pyrazole-1-carboxamidine] | – | – | – | – | – | – | – | – | – | – | – | isoTOP-ABPP ratio, lysine P46734_K93 ([1]; 100 uM_231_sol_in vitro): 6.8; isoTOP-ABPP ratio, lysine P17858_K715 ([2]; 100 uM_231_sol_in vitro): 1.8; isoTOP-ABPP ratio, lysine P13639_K235 (EEF2 Elongation factor 2; 100 uM_231_sol_in vitro): 6.2; isoTOP-ABPP ratio, lysine P13639_K318 (EEF2 Elongation factor 2; 100 uM_231_sol_in vitro): 2.0

From US20210255193A1, “LYSINE REACTIVE PROBES AND USES THEREOF” (The Scripps Research Institute, priority 2017, published 2021)
